In patent US12485106B2, “Methods of treating fibrotic liver diseases or conditions with indeglitazar” (PLEIOGENIX INC., priority 2023, dated 2025):
“Also recorded” adds a separate entry of the source.

Key:
[1] = system: mouse model of human alcoholic hepatitis; assay: AH mouse model (chronic and binge ethanol feeding plus LPS), dose-response study; format: in vivo; conditions: for effect on body weight: 10, 30 and 50 mg/kg/day oral gavage, male and female mice
Excerpt: Mouse model generation and treatment. The AH mouse model was generated as described in Shah et al. through chronic and binge ethanol feeding plus lipopolysaccharides (LPS) administration to provide a second hit to increase liver damage (Shah R et al., Oxid Med Cell Longev, (2018), 2018:9630175; Lamas-Paz A et al., World J Gastroenterol, (2018), 24:5063-75). This model is easy to implement and recapitulates the major features of human AH including marked ALT elevation, liver steatosis, and fibrosis (O'Beirne J., Dig Dis Sci., (2020), 65:920-1). A total of 60 mice, were used at a 50:50 male/female ratio to provide a comprehensive representation applicable in treating the general population. C57BL6 mice (6-8-week-old) were fed Lieber-DeCarli '82 rodent liquid diet (LDC) ad libitum for 5 days to acclimatize them to tube feeding. On day 6, mice were treated according to Table 1. Ethanol-fed groups were allowed free access to LDC diet containing 5% (vol/vol) ethanol for 11 days, and control groups were pair-fed with the LDC diet only. Indeglitazar was administered by oral gavage starting from day 6. On day 12, mice were given a single dose of 5 g/kg/bw of EtOH by oral gavage, and LPS (2 mg/kg/bw) by intraperitoneal injection (IP), pair-fed mice were fed isocaloric maltose dextrin and all mice were euthanized 6 h later.
Analysis and tests: Mice were treated for 11 days; body weights were measured before and during administration. Plasma was analyzed for ALT, AST, and GGT. A full necropsy was performed at the end-point together with liver histology to assess steatosis, and inflammatory infiltrates. Briefly, liver tissue was fixed in 10% neutral buffered formalin and paraffin-embedded, sectioned into […] thickness, and stained with hematoxylin-eosin (H&E) and Oil-Red O staining for evaluation of histopathological changes. Stained liver slices were analyzed under a bright-field microscope using the histological scoring system for nonalcoholic fatty liver disease (Kleiner D L et al., Hepatology, (2005), 41:1313-21). The remaining liver tissue was analyzed for liver triglycerides and cholesterol levels by biochemical assays.
The AH mouse model was generated as described in Shah et al. through chronic and binge ethanol (EtOH) feeding plus lipopolysaccharide (LPS) administration, to provide a second insult, to increase liver damage (Bertola A et al., Nat Protoc, (2013), 8:627-637; Takahashi Y et al., (2017), 313-339; Shah R et al., Oxid Med Cell Longev, (2018), 2018:9630175). This model recapitulates the major features of human AH, including marked ALT and AST elevation, liver steatosis, and fibrosis (Lucey M R et al., N Engl J Med., (2009), 360:2758-2769). For a dose-response study, a total of 60 (12 per group, 50:50 male/female ratio) C57BL6 mice (6-8-weeks old) were fed Lieber-DeCarli '82 rodent liquid diet (LDC) ad libitum, for 5 days, to acclimatize them to tube feeding. On days 6-11, mice were fed the LCD diet plus ethanol (5% vol:vol), and treated with indeglitazar (10 mg/kg, 30 mg/kg, or 50 mg/kg, oral gavage). On day 12, mice were given a single dose of EtOH (5 g/kg/body weight) by oral gavage and LPS (2 mg/kg/body weight) by ip injection; pair-fed mice were fed isocaloric maltose dextrin and all mice were euthanized 6 h later.

[2] = system: adipocyte differentiation; conditions: compared with full PPAR γ-agonists like pioglitazone; cited from earlier work
PPARδ = molecular target: T1, PPARδ (Homo sapiens, UniProt Q03181); conditions: cited from earlier work
T1 sequence (Q03181 1-441): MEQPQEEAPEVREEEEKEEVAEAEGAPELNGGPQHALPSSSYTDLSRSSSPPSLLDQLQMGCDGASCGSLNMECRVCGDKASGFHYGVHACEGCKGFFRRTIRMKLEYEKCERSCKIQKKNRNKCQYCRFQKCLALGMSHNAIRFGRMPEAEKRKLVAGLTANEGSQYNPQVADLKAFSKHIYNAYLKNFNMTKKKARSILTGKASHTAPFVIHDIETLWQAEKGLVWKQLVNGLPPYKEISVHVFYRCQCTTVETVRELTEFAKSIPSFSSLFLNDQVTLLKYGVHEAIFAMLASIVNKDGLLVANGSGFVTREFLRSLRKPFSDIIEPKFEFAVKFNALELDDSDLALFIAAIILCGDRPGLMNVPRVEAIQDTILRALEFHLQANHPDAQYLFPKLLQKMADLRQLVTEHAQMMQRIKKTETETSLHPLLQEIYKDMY

## COc1ccc(S(=O)(=O)n2cc(CCC(=O)O)c3cc(OC)ccc32)cc1 [Indeglitazar, 3-[5-methoxy-1-(4-methoxybenzenesulfonyl)-1H-indol-3-yl]-propanoic acid]
[1]; 50 mg/kg, vs vehicle+EtOH
  effect on liver triglycerides: significantly reduced
[1]; 50 mg/kg, vs vehicle+EtOH, P<0.0001
  reduction of ALT activity: 60%
[1]; 50 mg/kg, vs vehicle+EtOH, P<0.004
  reduction of AST: 49%
[1]; 50 mg/kg, vs vehicle+EtOH, P<0.03
  reduction of liver TG: 35%
[1]; 10, 30, 50 mg/kg/day
  effect on liver total cholesterol: no significant effect
[1]; 10, 30 and 50 mg/kg oral gavage, vs EtOH-treated vehicle control
  effect on food intake: Neither EtOH (vs no EtOH vehicle control) or indeglitazar had a significant effect
[1]; vs ethanol-treated vehicle control
  effect on body weight: no significant effect
[1]; vs ethanol-treated vehicle control, listed as indeglitazar
  effect on body weight: Neither EtOH (vs no EtOH vehicle control) or indeglitazar had a significant effect; also recorded: no significant effect
[1]; 10 and 50 mg/kg, vs ethanol-treated vehicle control
  effect on AST: significant decreases
[1]; all three doses (10, 30, 50 mg/kg), vs ethanol-treated vehicle control
  effect on ALT: significant decrease
[2]
  promoting adipocyte differentiation: less potent
PPARδ
  agonism towards PPARδ: partial agonism
